# According to paper PMC11249646, “Small-Molecule Disruptors of the Interaction between Calcium- and Integrin-Binding Protein 1 and Integrin αIIbβ3 as Novel Antiplatelet Agents” (ACS Pharmacology & Translational Science, 2024):
# Like-named read-outs stand apart in the source and are kept apart here.
# How the values were obtained:
# [1] = biological target: T1, CIB1 and αIIb interaction (CIB1-GST : F-αIIb peptide) (Homo sapiens, UniProt Q99828); assay: FP assay, 1536-well qHTS format (primary and confirmatory screen); type: binding; conditions: for Curve Class (confirmatory screen) / CONFIRMATORY SCREEN Curve Class: qHTS curve class
# T1 construct: made in house; host or cells: BL-21 plus RIL cells (E. coli)
# T1 sequence (Q99828 1-191): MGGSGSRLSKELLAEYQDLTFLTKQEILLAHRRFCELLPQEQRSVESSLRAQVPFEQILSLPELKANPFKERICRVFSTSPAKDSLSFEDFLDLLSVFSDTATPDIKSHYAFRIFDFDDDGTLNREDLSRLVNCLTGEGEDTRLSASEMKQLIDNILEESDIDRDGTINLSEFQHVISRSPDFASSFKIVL
# [2] = biological target: T2, GST-CIB1 : F-scrambled peptide (Homo sapiens, UniProt Q99828); assay: FP scrambled-peptide counter screen, 1536-well format; type: binding; conditions: for Confirm? (counterscreen): YES/NO; for Curve Class (counterscreen) / COUNTERSCREEN Curve Class: qHTS curve class; for IC50: read-out: IC50 [μM] (counterscreen)
# T2 construct: made in house; host or cells: BL-21 plus RIL cells (E. coli)
# T2 sequence (Q99828 1-191): T1 sequence (Q99828 1-191)
# [3] = confirmatory screen, negative sign = inhibitory curve
# [4] = confirmatory screen, read-out: IC50 [μM] (confirmatory screen)
# [5] = qHTS primary screen hits, Table S2, negative = inhibition
# [6] = qHTS primary screen hits, Table S2, negative sign = inhibitory curve, several classes where COUNT > 1
# [7] = qHTS primary screen hits, Table S2, read-out: IC50
# [8] = counterscreen, negative sign = inhibitory curve
# [9] = Table S3, confirmatory screen, a negative sign marks inhibitory curves
# [10] = Table S3, confirmatory screen, negative = inhibition
# [11] = Table S3, counterscreen, a negative sign marks inhibitory curves
# [12] = Table S3, counterscreen, negative = inhibition
# [13] = Table S3, confirmatory screen, YES/NO call
# [14] = Table S3, confirmatory screen, read-out: IC50 [μM] (confirmatory screen)
# [15] = qHTS FP screen hits, Table S2, negative = inhibition
# [16] = qHTS FP screen hits, Table S2, one class per curve where COUNT > 1, negative sign = inhibitory curve
# [17] = qHTS FP screen hits, Table S2, read-out: IC50
# [18] = qHTS primary screen hits, Table S2, negative sign = inhibitory curve
SMILES,Efficacy (%) (confirmatory screen) ([1]; confirmatory screen),"Confirm? (confirmatory screen) ([1]; confirmatory screen, YES/NO)","Curve Class (confirmatory screen) [1, 3]","IC50 [1, 4] [µM]","Efficacy (%) [1, 5] [%]","Curve Class [1, 6]","IC50 [1, 7] [µM]",Efficacy (%) (counterscreen) ([2]; counterscreen),"Curve Class (counterscreen) [2, 8]","Curve Class (confirmatory screen) [1, 9]","Efficacy (%) (confirmatory screen) [1, 10]","Efficacy (%) (counterscreen) [2, 12]","IC50 ([2]; Table S3, counterscreen) [µM]",further results
Cc1ccc2nc3sc(C(=O)NCc4ccco4)cc3cc2c1.O=C(O)C(F)(F)F [NCGC00183968-01],-34,YES,-1.2,15.8,-24,-1.4,7.1,-27,4,–,–,–,–,Confirm? (counterscreen) ([2]; counterscreen): YES
CC1(C)N=C(Nc2nc3ccccc3o2)NC2=C1C(=O)CCC2.O=C(O)C(F)(F)F [NCGC00187643-01],–,–,–,–,-35,-2.2,20,–,–,–,–,–,–,CONFIRMATORY SCREEN Efficacy (%) ([1]; confirmatory screen): -26%; CONFIRMATORY SCREEN Curve Class ([1]; confirmatory screen): 4; COUNTERSCREEN Efficacy (%) ([2]; counterscreen): -12%; COUNTERSCREEN Curve Class ([2]; counterscreen): 4
CCN1C(=O)c2ccccc2[S+]([O-])c2ccc(C(=O)Nc3ncc(C)s3)cc21 (stereo not shown) [NCGC00241655-01],–,–,–,–,-23,-2.4,39.8,–,–,–,–,–,–,CONFIRMATORY SCREEN Efficacy (%) ([1]; confirmatory screen): -10%; CONFIRMATORY SCREEN Curve Class ([1]; confirmatory screen): 4; COUNTERSCREEN Efficacy (%) ([2]; counterscreen): -33%; COUNTERSCREEN Curve Class ([2]; counterscreen): 4
COc1ccccc1C(=O)/C=C1/C(=O)Nc2ccc(C)cc21.O=C(O)C(F)(F)F [NCGC00481357-01],-59,YES,-1.4,5.6,-43,-1.2,14.1,-51,-1.4,–,–,–,–,IC50 ([2]; counterscreen): 6.3 µM
O=C1C=CC(=O)N1c1ccc(N2CCOCC2)cc1 [NCGC00373122-01],–,–,–,–,-33,-2.4,28.2,–,–,–,–,–,–,CONFIRMATORY SCREEN Efficacy (%) ([1]; confirmatory screen): -44%; CONFIRMATORY SCREEN Curve Class ([1]; confirmatory screen): 4; COUNTERSCREEN Efficacy (%) ([2]; counterscreen): -8%; COUNTERSCREEN Curve Class ([2]; counterscreen): 4
O=c1cc(-c2ccccc2)oc2cc(O)c(O)c(O)c12 [NCGC00017236-08],-112,–,–,39.8,-30,–,34.1,-64,–,–,–,–,–,IC50 ([2]; counterscreen): 39.8 µM
CCOc1ccc(CCNC(=O)c2ccc(N3N=C(C)CC3=O)cc2)cc1OCC.O=C(O)C(F)(F)F [NCGC00241439-01],–,–,–,–,-42,-1.2,22.4,–,–,4,-41,-33,–,"Curve Class (counterscreen) [2, 11]: 4"
N#Cc1ccc(NS(=O)(=O)c2ccc(NC(=O)Cc3ccc(Cl)c(Cl)c3)cc2)cc1.O=C(O)C(F)(F)F [NCGC00253445-01],–,–,–,–,–,–,–,–,–,2.3,146,202,70.8,–
COC(=O)c1scc2c(O)cc(C(F)(F)F)nc12 [NCGC00168006-01],–,–,–,–,-56,-2.2,50.1,–,–,-3,-58,-67,79.4,"Confirm? (confirmatory screen) [1, 13]: YES; IC50 [1, 14]: 70.8 µM; Curve Class (counterscreen) [2, 11]: -3"
O=C(O)c1cnn(-c2nc3cc(Cl)c(OC(F)(F)F)cc3[nH]2)c1 [NCGC00484069-01],-39,YES,-2.4,44.7,–,–,–,-15,4,–,–,–,–,"Efficacy (%) [1, 15]: -33%; Curve Class [1, 16]: -1.2; IC50 [1, 17]: 28.2 µM; Confirm? (counterscreen) ([2]; counterscreen): YES"
C[n+]1cc2c3c(ccc2c2ccc4cc5c(cc4c21)OCO5)OCO3.[Cl-] [NCGC00015959-09],–,–,–,–,-124,–,14.1,–,–,4,0,0,–,"Curve Class [1, 18]: -1.1; Curve Class (counterscreen) [2, 11]: 4"
COc1ccccc1Nc1cc2ccccc2c(O)n1 [NCGC00183215-01],–,–,–,–,-67,-2.2,50.1,–,–,-2.1,-92,-136,35.5,"Confirm? (confirmatory screen) [1, 13]: YES; IC50 [1, 14]: 39.8 µM; Curve Class (counterscreen) [2, 11]: -2.1"
CCCCCCCCn1cc(CC(N)=O)c2cc(-c3cccc(C)c3)ccc21.O=C(O)C(F)(F)F [NCGC00348156-02],–,–,–,–,–,–,–,–,–,-2.4,-95,-121,39.8,"Confirm? (confirmatory screen) [1, 13]: YES; IC50 [1, 14]: 44.7 µM; Efficacy (%) [1, 15]: -74%; IC50 [1, 17]: 50.1 µM; Curve Class (counterscreen) [2, 11]: -2.1"
Cc1ccc(OCCn2c(CCNC(=O)c3ccsc3)nc3ccccc32)cc1.O=C(O)C(F)(F)F [NCGC00238707-01],–,–,–,–,-22,-1.4,11.2,–,–,3,35,109,50.1,–
CN(C)CCCn1cc(C2=C(c3c[nH]c4ccccc34)C(=O)NC2=O)c2ccccc21 [NCGC00024760-07],-63,YES,-2.2,44.7,–,–,–,-54,-2.2,–,–,–,–,"Efficacy (%) [1, 15]: -53%; Curve Class [1, 16]: -2.2; IC50 [1, 17]: 39.8 µM; IC50 ([2]; counterscreen): 35.5 µM"
NS(=O)(=O)c1ccc(Cc2c(-c3ccc(F)c(-c4ccc(F)cc4)c3)nn(-c3nc(C(=O)O)cs3)c2C2CC2)cc1F.O=C(O)C(F)(F)F [NCGC00381623-01],–,–,–,–,-25,-2.4,39.8,–,–,3,124,250,79.4,–
CCOC(=O)c1[nH]c2c(c1C)C(=S)CC(c1ccco1)C2.O=C(O)C(F)(F)F (stereo not shown) [NCGC00238571-01],-73,YES,-1.2,35.5,-69,-2.2,50.1,-30,-1.4,–,–,–,–,IC50 ([2]; counterscreen): 7.1 µM
Nc1ccc(CNc2ccc(S(=O)(=O)Nc3nccs3)cc2)c(O)c1.O=C(O)C(F)(F)F [NCGC00273962-01],-75,YES,-3,89.1,-29,–,39.8,-61,-2.2,–,–,–,–,"Curve Class [1, 18]: -2.4; IC50 ([2]; counterscreen): 50.1 µM"
